Literature values in patent publication US20090155392A1, “Methods and Systems for Sublingual Guarana Administration” (priority 2007, published 2009).

Legend:
[1] = versus other lithium salts (lithium carbonate, lithium citrate)
[2] = in vivo

COc1cc(CNC(=O)CCCC/C=C/C(C)C)ccc1O [capsaicin, Capsaicin]
mean metabolic rate (30 minutes and 60 minutes after taking the extract): significant increase
subjects with reduced body fat (two week period): 70%

O=C([O-])c1cc(=O)[nH]c(=O)[nH]1.[Li+] [lithium orotate, Lithium orotate]
bio-activity relative to other lithium salts [1]: 20 times

CS(C)(=O)=O [MSM, Methylsulfonylmethane]
homocysteine levels in blood [2]: statistically significant lower levels
joint pain and stiffness [2]: significantly beneficial effect on joint pain and stiffness
